Assays:
mPTP [1] = experiment: Human platelet mitochondria assay (annexin V / PS exposure by flow cytometry); format: cell-based; settings: human blood platelets stimulated with thrombin/convulxin/calcium; % AnV-APC positive platelets
Protocol: The mPTP cell based assay was performed using a transformative functional cell-(human blood platelets)-based assay by flow cytometry. Procoagulant platelets expose phosphatidylserine (PS), allowing a burst of thrombin generation that is responsible for producing an occlusive thrombus. While an increase in cytosolic Ca^2+ concentration is required for deriving platelets to become activated, a higher and more sustained increases in cytosolic Ca^2+ concentration is needed to commit some platelets to becoming procoagulant. Simulation of platelets results in the rapid influx of Ca^2+ across the platelet membrane. The Ca^2+ is then sequestered by mitochondria until the threshold for mPTP opening is reached, at which point the pore opens and the mitochondrial membrane potential is dissipated. mPTP opening and subsequent disruption in mitochondrial membrane potential leads to release of a high concentration of calcium stored in mitochondria into the platelet's cytosol (“supramaximal calcium signal” [1]) which is known to be a requisite initiating signal transduction leading to externalisation of procoagulant PS to the outer leaflet of platelets' plasma membrane. PS externalisation of stimulated platelets can be quantified in live platelets using standard annexin V (AnV) labelling by flow cytometry, enabling pharmacological characterisation of mPTP inhibitors.
Fresh human blood (9 ml) was collected from consenting donors into 3.2% sodium citrate. Acid citrate dextrose (85 mM tri-sodium citrate, 71 mM citric acid, and 111 mM D-glucose) was added (1:7 vol/vol) and platelet-rich plasma was separated by centrifugation (200 g, 10 minutes, ambient temperature, and without any brake). Platelets were pelleted by centrifugation (600 g, 10 minutes, ambient temperature) in the presence of prostaglandin E1 (100 nM) and apyrase (0.02 U/mL). Pelleted platelets were resuspended in N-2-hydroxyethylpiperazine-N′-2-ethanesulfonic acid (HEPES)-buffered saline supplemented with D-glucose (135 mM NaCl, 10 mM HEPES, 3 mM KCl, 1 mM MgCl2, 0.34 mM NaH2PO4, 5 mM D-glucose, 0.1% bovine serum albumin, pH 7.4.) and apyrase (0.02 U/mL). Platelets were rested for 30 minutes at 30° C. before treatment protocols were initiated.
Test compounds were prepared from 10 mM stocks in DMSO. Serial dilution of search test compounds stamped in duplicate into a 96 well plate using Multidrop Pico 8 Digital Dispenser. Platelets were loaded and incubated for 30 min at room temperature. Then a stimulation mix containing Thrombin (FAC: 0.5 U/ml)/Convulxin (FAC: 0.05 μg/ml)/Calcium (FAC: 2 mM) added per well except control/not stimulated wells (This is low signal control). Some wells received no treatment but DMSO vehicle control and used as high signal controls (FAC of DMSO set at 0.1% in all wells of the 96 well plate). The reaction mix incubated for 10 min at room temperature. During last 2 min of stimulation AnV-APC was added to detect surface PS exposure. Samples ten fixed and fluorescence was detected by MACSQuant X flow cytometry and 10 000 platelet events were collected. The percentage of AnV-APC positive platelets was calculated for each well. IC50 for each compound was then calculated using a standard four parameter curve fit model (GraphPad Prism).

mPTP [2] = experiment: mPTP activity assay in isolated rat brain mitochondria; format: biochemical; settings: fluorescence at 10 min timepoint
Method in brief: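 Fresh brain mitochondria from female Sprague Dawley rats, digitonin-washed, in pH 7.4 mannitol/MOPS/KCl buffer with pyruvate, malate, ADP, oligomycin A and 2 μM Fluo5N. Preincubated with compounds 10 min at RT. Fluo5N fluorescence then read every 3 sec for 10 min on FLIPR Tetra.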

mPTP [3] = experiment: mPTP activity (Ca2+ retention) assay in isolated rat liver mitochondria; format: biochemical; settings: for mPTP Rat liver pIC50: examples tested by different contract research organisations, believed comparable
Method in brief: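 pIC50 was taken from Fluo5N fluorescence at 10 min after a 75 μM CaCl2 bolus, scaled between DMSO (0%) and 5 μM cyclosporin A (100%). Compounds, ten half-log concentrations from 30 μM to 1 nM final, sat 10 min at RT with fresh female Sprague Dawley rat liver mitochondria energized by succinate plus rotenone.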

Question: Which pIC50 (mPTP [1]) does the source give for `Cn1nc(C(=O)NCC2(Cc3ccc(F)cc3F)CCC2)[nH]c1=O` [Example 22, N-((1-(2,4-difluorobenzyl)cyclobutyl)methyl)-1-methyl-5-oxo-4,5-dihydro-1H-1,2,4-triazole-3-carboxamide] here?
Answer: 7.14

Question: What about the “mPTP Rat brain pIC50” value (mPTP [2]) of the same compound?
Answer: 7.75

Question: And the “mPTP Rat liver pIC50” value (mPTP [3])?
Answer: 6.79

Question: Which pIC50 (mPTP [1]) does the source give for `Cn1nc(C(=O)NC[C@H](Cc2ccc(F)cc2F)C2CC2)[nH]c1=O` [Example 96, (R)—N-(2-Cyclopropyl-3-(2,4-difluorophenyl)propyl)-1-methyl-5-oxo-4,5-dihydro-1H-1,2,4-triazole-3-carboxamide] here?
Answer: 7.43

Question: And the “mPTP Rat brain pIC50” value (mPTP [2])?
Answer: 7.91

Question: And the “mPTP Rat liver pIC50” value (mPTP [3])?
Answer: 6.76

Question: Which pIC50 (mPTP [1]) does the source give for `Cn1nc(C(=O)NC[C@H](Cc2c(F)cc(F)cc2F)C2CC2)[nH]c1=O` [Example 117, (R)—N-(2-cyclopropyl-3-(2,4,6-trifluorophenyl)propyl)-1-methyl-5-oxo-4,5-dihydro-1H-1,2,4-triazole-3-carboxamide] here?
Answer: 6.90

Question: What about the “mPTP Rat brain pIC50” value (mPTP [2]) of the same compound?
Answer: 7.56

Question: And the “mPTP Rat liver pIC50” value (mPTP [3])?
Answer: 6.47

Question: Which results are given for `Cn1nc(C(=O)NC[C@H](Cc2ccc(F)cc2)C2CC2)[nH]c1=O` [Example 190]?
Answer: pIC50 (mPTP [1]): 7.23; mPTP Rat brain pIC50 (mPTP [2]): 7.75; mPTP pIC50 rat liver mitochondria (mPTP [3]; Fluo5N fluorescence at 10 min after 75 μM CaCl2): highest activity; mPTP Rat liver pIC50 (mPTP [3]): 7.31
